The source made the active and inactive calls.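 Rule for the calls: active = tumour findings in long-term animal cancer tests in more than one sex, species or organ; inactive = no tumour finding and more than one negative test.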
Assay: DSSTox (CPDBAS) Carcinogenic Potency Database Summary MultiCellCall Results
Conditions: animal carcinogenicity bioassays, multi-cell call summary
Description: The Carcinogenic Potency Database (CPDB) is a unique and widely used international resource of the results of over 6500 chronic, long-term animal cancer tests on over 1500 chemical substances. The CPDB provides easy access to the bioassay literature, with qualitative and quantitative analyses of both positive and negative experiments that have been published over the past 50 years in the general literature and by the National Cancer Institute/National Toxicology Program. The CPDB standardizes the diverse literature of cancer bioassays that vary widely in protocol, histopathological examination and nomenclature, and in the published author's choices of what information to provide in their papers. Results are reported in the CPDB for tests in rats, mice, hamsters, dogs, and nonhuman primates, and are based on the most positive result among all experiments for each sex-species. The DSSTox CPDBAS (all species) file incorporates data from the CPDB Summary Tables for the full list of over 1500 chemical substances tested in at least one species. A summary MultiCellCall, based on experimental bioassay results of one or more species, is provided in the DSSTox CPDBAS file (see Source URL) for more than 1150 chemical substances.
Associated TD50 values and tumor site details for the relevant species/sex experiment supporting the overall CPDBAS MultiSiteCall are provided in the full DSSTox CPDBAS file (see Comment) and the corresponding CPDBAS Species Bioassay in PubChem. ActivityScore is computed as follows: multispecies=50, multisex=30, multisite=20, with combination scores computed as sums of these values, e.g. multispecies+multisite=70.
For `C[N+](C)(C)CCCl`, the outcome was “inactive; multisex inactive; multispecies inactive”.
In the case of `Nc1ccc2c(n1)[nH]c1ccccc12`, the outcome is reported as “active; multisite active; multisex active”.
With `O.O.O.O.O.O.O=S(=O)([O-])[O-].[Ni+2]` the outcome was “inactive; multisex inactive; multispecies inactive”.
In the case of `NCCS(=O)(=O)O`, the outcome is reported as “inactive; multisex inactive”.
In the case of `ClC(Cl)=C(Cl)Cl`, the outcome is reported as “active; multisite active; multisex active; multispecies active”.
With `NC(=S)Nc1ccccc1` the outcome was “inactive; multisex inactive; multispecies inactive”.
With `O=C1O[C@@H](CN2CCOCC2)CN1/N=C/c1ccc([N+](=O)[O-])o1` the outcome was “active; multisite active”.
For `ClCc1ccccc1`, the outcome was “active; multisex active”.
With `CO[C@@]12[C@H](COC(N)=O)C3=C(C(=O)C(C)=C(N)C3=O)N1C[C@@H]1N[C@@H]12` the outcome was “active; multisex active”.
For `Cc1ccc([N+](=O)[O-])cc1N`, the outcome was “active; multisite active; multisex active”.
In the case of `NC(=O)N/N=C/c1ccc([N+](=O)[O-])o1`, the outcome is reported as “active; multisite active; multispecies active”.
For `Nc1ncn[nH]1`, the outcome was “active; multisite active; multisex active; multispecies active”.
For `CC(C)NCC(O)COc1ccc(CC(N)=O)cc1` (stereo not given), the outcome was “inactive; multisex inactive”.
With `O=C1c2ccccc2C(=O)N1SC(Cl)(Cl)Cl` the outcome was “active; multisite active; multisex active”.
For `Cc1cccc(OCC(O)CNC(C)(C)C)c1C` (stereo not given), the outcome was “inactive; multisex inactive”.
With `Cc1cc(C(C)(C)C)c(O)c(C(C)(C)C)c1` the outcome was “active; multisite active”.
In the case of `NS(=O)(=O)c1cc2c(cc1Cl)NCNS2(=O)=O`, the outcome is reported as “inactive; multisex inactive; multispecies inactive”.
For `Cc1cc(=O)n(-c2ccccc2)n1C`, the outcome was “active; multisite active”.
In the case of `C=CC1=C(C)C2=CC3=NC(=C(CC(=O)[O-])C4=NC(=C(C)C4=C([O-])[O-])C=c4[n-]c(c(C)c4CC)=CC1=N2)[C@@H](CCC(=O)[O-])[C@@H]3C.[Cu+2].[Na+].[Na+].[Na+]`, the outcome is reported as “inactive; multisex inactive”.
In the case of `CCCCCCCCCCN(C)N=O`, the outcome is reported as “active; multisite active”.
In the case of `CCN(Cc1cccc(S(=O)(=O)[O-])c1)c1ccc(C(=C2C=CC(=[N+](C)C)C=C2)c2ccc(N(CC)Cc3cccc(S(=O)(=O)O)c3)cc2)cc1`, the outcome is reported as “active; multisite active”.
With `Cc1ccccc1OCC(O)CNCCn1cc(C)c(=O)[nH]c1=O` (stereo not given) the outcome was “inactive; multisex inactive”.
For `CCNc1nc(Cl)nc(NC(C)C)n1`, the outcome was “active; multisite active; multisex active”.
For `Clc1ccccc1Cl`, the outcome was “inactive; multisex inactive; multispecies inactive”.
For `CC(O)CN(CC(C)O)N=O` (stereo not given), the outcome was “active; multisite active; multisex active”.
With `C[C@]12CCC(=O)C=C1CC[C@@H]1[C@@H]2[C@@H](O)C[C@@]2(C)[C@H]1CC[C@]2(O)C(=O)CO` the outcome was “inactive; multisex inactive”.
In the case of `O=NN(CCCl)C(=O)N[C@@H]1[C@@H](O)[C@H](O)[C@@H](CO)O[C@@H]1O`, the outcome is reported as “active; multisex active”.
With `CCCCN(CC)C(=O)SCCC` the outcome was “inactive; multisex inactive”.
For `C=Cc1ccccc1`, the outcome was “active; multisite active; multisex active; multispecies active”.
For `COc1ccc(C)cc1N`, the outcome was “active; multisite active; multisex active; multispecies active”.
In the case of `CC(O)CCl` (stereo not given), the outcome is reported as “inactive; multisex inactive; multispecies inactive”.
For `O=c1[nH]cc(F)c(=O)[nH]1`, the outcome was “active; multisite active; multisex active”.
In the case of `CN(C)CCOC(C)(c1ccccc1)c1ccccn1` (stereo not given), the outcome is reported as “active; multisite active; multisex active; multispecies active”.
In the case of `C1CCCNCCC1`, the outcome is reported as “inactive; multisex inactive”.
In the case of `C=CC(=O)OCC`, the outcome is reported as “active; multisex active; multispecies active”.
For `Nc1ccc(-c2ccc(F)cc2)cc1`, the outcome was “active; multisex active”.
With `O=C(O)c1[nH]n(-c2ccc(S(=O)(=O)O)cc2)c(=O)c1N=Nc1ccc(S(=O)(=O)O)cc1` the outcome was “inactive; multisex inactive; multispecies inactive”.
With `N=C1C=CC(=C(c2ccc(N)cc2)c2ccc(N)cc2)C=C1` the outcome was “active; multisite active; multisex active; multispecies active”.
With `NC(=O)N(CCCO)N=O` the outcome was “active; multisex active”.
In the case of `CC(C)Nc1nc(Cl)nc(NC(C)C)n1`, the outcome is reported as “inactive; multisex inactive”.
In the case of `Oc1ccc(-c2ccccc2)cc1`, the outcome is reported as “inactive; multisex inactive”.
In the case of `CCN(CC)C(=O)/C(Cl)=C(\C)OP(=O)(OC)OC`, the outcome is reported as “inactive; multisex inactive”.
With `NNC(N)=O` the outcome was “active; multisite active; multisex active”.
In the case of `O=[N+]([O-])c1ccc(-c2nc(N(CCO)CCO)c3ccccc3n2)s1`, the outcome is reported as “active; multisite active”.
For `CCN(CC)C(=S)S[Te](SC(=S)N(CC)CC)(SC(=S)N(CC)CC)SC(=S)N(CC)CC`, the outcome was “inactive; multisex inactive; multispecies inactive”.
For `CCCCNC(N)=O`, the outcome was “inactive; multisex inactive; multispecies inactive”.
In the case of `ClCOCCl`, the outcome is reported as “active; multisite active; multisex active; multispecies active”.
In the case of `CC(O)CN(C)N=O` (stereo not given), the outcome is reported as “active; multisite active; multisex active”.
For `CC(C(O)c1ccccc1)N(C)N=O` (stereo not given), the outcome was “active; multisite active”.
For `COc1cc(/C=C/C(=O)CC(=O)/C=C/c2ccc(O)c(OC)c2)ccc1O`, the outcome was “inactive; multisex inactive; multispecies inactive”.
With `NNc1nc(-c2ccc([N+](=O)[O-])o2)cs1` the outcome was “active; multisite active; multispecies active”.
For `[K+]`, the outcome was “active; multisex active”.
With `O=S(=O)(Oc1ccc(Cl)cc1)c1ccc(Cl)cc1` the outcome was “inactive; multisex inactive”.
In the case of `[S-]c1nc2ccccc2s1.[S-]c1nc2ccccc2s1.[Zn+2]`, the outcome is reported as “inactive; multisex inactive”.
With `FC(F)(Cl)Cl` the outcome was “inactive; multisex inactive; multispecies inactive”.
For `O=C(O)c1ccncc1`, the outcome was “inactive; multisex inactive; multispecies inactive”.
With `C[C@]12CC[C@@H]3c4ccc(OC(=O)Cc5ccc(N(CCCl)CCCl)cc5)cc4CC[C@H]3[C@@H]1CC[C@@H]2OC(=O)Cc1ccc(N(CCCl)CCCl)cc1` the outcome was “active; multisite active; multisex active”.
For `Nc1ncn([C@@H]2O[C@H](CO)[C@@H](O)[C@H]2O)c(=O)n1`, the outcome was “active; multisite active; multisex active; multispecies active”.
In the case of `CCCCNC(=O)NS(=O)(=O)c1ccc(C)cc1`, the outcome is reported as “inactive; multisex inactive; multispecies inactive”.
For `CC1(C)S[C@@H]2[C@H](NC(=O)[C@H](N)c3ccccc3)C(=O)N2[C@H]1C(=O)O`, the outcome was “inactive; multisex inactive; multispecies inactive”.
With `O1[As]2O[As]3O[As]1O[As](O2)O3` the outcome was “inactive; multisex inactive”.
For `C=CCCl`, the outcome was “inactive; multisex inactive”.
In the case of `O=[N+]([O-])c1ccccc1`, the outcome is reported as “active; multisite active; multisex active; multispecies active”.
For `CC(CCl)OC(C)CCl` (stereo not given), the outcome was “active; multisite active; multisex active”.
In the case of `O=[N+]([O-])c1ccc2nc[nH]c2c1`, the outcome is reported as “active; multisex active”.
With `c1ccc2cc(Nc3ccc(Nc4ccc5ccccc5c4)cc3)ccc2c1` the outcome was “inactive; multisex inactive”.
In the case of `O=C(O)c1ccccc1`, the outcome is reported as “inactive; multisex inactive; multispecies inactive”.
For `C1CCNCC1`, the outcome was “inactive; multisex inactive”.
For `CN[C@H]1CC[C@@H](c2ccc(Cl)c(Cl)c2)c2ccccc21`, the outcome was “inactive; multisex inactive; multispecies inactive”.
In the case of `C=CC(=O)O`, the outcome is reported as “inactive; multisex inactive”.
In the case of `CCC1(c2ccccc2)C(=O)NCNC1=O`, the outcome is reported as “active; multisite active; multisex active”.
With `CC(=O)NNc1ccccc1` the outcome was “active; multisex active”.
For `c1ccc2sc(SNC3CCCCC3)nc2c1`, the outcome was “inactive; multisex inactive”.
In the case of `C=CCN(N=O)C(N)=O`, the outcome is reported as “active; multisite active; multisex active”.
With `O=C(CCl)c1ccccc1` the outcome was “inactive; multisex inactive; multispecies inactive”.
For `CN(C)C(=S)S`, the outcome was “inactive; multisex inactive”.
With `CCCN(CCC)N=O` the outcome was “active; multisite active; multispecies active”.
With `C1N2CN3CN1CN(C2)C3` the outcome was “inactive; multisex inactive; multispecies inactive”.
With `c1ccc(N=Nc2ccccc2)cc1` the outcome was “active; multisite active; multisex active”.
For `CC1(C)C(=O)Nc2ccc(C3=NNC(=O)CC3)cc21`, the outcome was “active; multisex active”.
In the case of `Cc1cccc(Nc2cc(Cl)nc(SCC(=O)O)n2)c1C`, the outcome is reported as “active; multispecies active”.
With `COc1cc(-c2ccc(N=C=O)c(OC)c2)ccc1N=C=O` the outcome was “active; multisite active; multisex active”.
With `O=S1OCC2C(CO1)C1(Cl)C(Cl)=C(Cl)C2(Cl)C1(Cl)Cl` (stereo not given) the outcome was “inactive; multisex inactive; multispecies inactive”.
In the case of `C[N+](=O)[O-]`, the outcome is reported as “active; multisite active; multisex active; multispecies active”.
With `CCCCC(C)(O)C/C=C/[C@H]1[C@H](O)CC(=O)[C@@H]1CCCCCCC(=O)OC` (stereo not given in full) the outcome was “inactive; multisex inactive; multispecies inactive”.
For `CN1C(=O)C[C@@H](C(=O)N[C@@H](Cc2cnc[nH]2)C(=O)N2CCC[C@H]2C(N)=O)NC1=O`, the outcome was “inactive; multisex inactive; multispecies inactive”.
In the case of `N[C@@H](Cc1c[nH]c2ccccc12)C(=O)O`, the outcome is reported as “inactive; multisex inactive; multispecies inactive”.
With `Cc1ccc2c(c1)C(N1CCN(C)CC1)=Nc1ccccc1S2` the outcome was “inactive; multisex inactive”.
In the case of `Cc1cc(Cc2cc(C)cc(C(C)(C)C)c2O)c(O)c(C(C)(C)C)c1`, the outcome is reported as “inactive; multisex inactive”.
For `C=CC(OCC)OCC`, the outcome was “inactive; multisex inactive”.

From PubChem BioAssay AID1205 (EPA DSSTox, 2008)
